The values that follow come from patent US7348425B2, “Inhibitors of HCV replication” (Bristol-Myers Squibb Company, priority 2004, dated 2008).

The target in assay [1] is T1, HCV NS5B RdRp genotype 1b (Hepatitis C virus genotype 1b, UniProt Q9WMX2).
T1 construct: The protein was expressed with an 18 amino acid C-terminal truncation to enhance the solubility; made in house; host or cells: E. coli BL21 (DE3), pET21a
In words: Standard HCV NS5B RdRp enzyme assay. The class given is biochemical. The following applies: standard method. Put shortly: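 C-terminally truncated (18 aa) genotype 1b NS5B from E. coli, 28 nM, with 6 nM polyA template, 180 nM biotin-oligo-dT12 primer and ³H-UTP (0.29 μM total UTP) in pH 7.5 Hepes buffer, 2% DMSO. 60 min at 30° C, EDTA/SPA-bead stop; IC50 from seven concentrations by four-parameter fit.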

Assay [2] relates to HCV replicon. The experiment in a line: HCV replicon luciferase assay. As to conditions: luciferase method; read-out: EC50. It counts as cell-based, Hepatitis C virus. An outline of the steps: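 Replicon cells, some carrying a Renilla luciferase reporter, were incubated with titrated compound at 37 °C; Alamar blue measured cytotoxicity, followed by a kinetic FRET peptide read (340/490 nm) or Dual-Glo luciferase. Activity was normalized to untreated controls after subtracting background from high-dose protease inhibitor wells; EC50 was the concentration giving 50% signal reduction.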

Assay [3] relates to HCV. As to conditions: cited from earlier work.

T1 sequence (Q9WMX2 2420-2992): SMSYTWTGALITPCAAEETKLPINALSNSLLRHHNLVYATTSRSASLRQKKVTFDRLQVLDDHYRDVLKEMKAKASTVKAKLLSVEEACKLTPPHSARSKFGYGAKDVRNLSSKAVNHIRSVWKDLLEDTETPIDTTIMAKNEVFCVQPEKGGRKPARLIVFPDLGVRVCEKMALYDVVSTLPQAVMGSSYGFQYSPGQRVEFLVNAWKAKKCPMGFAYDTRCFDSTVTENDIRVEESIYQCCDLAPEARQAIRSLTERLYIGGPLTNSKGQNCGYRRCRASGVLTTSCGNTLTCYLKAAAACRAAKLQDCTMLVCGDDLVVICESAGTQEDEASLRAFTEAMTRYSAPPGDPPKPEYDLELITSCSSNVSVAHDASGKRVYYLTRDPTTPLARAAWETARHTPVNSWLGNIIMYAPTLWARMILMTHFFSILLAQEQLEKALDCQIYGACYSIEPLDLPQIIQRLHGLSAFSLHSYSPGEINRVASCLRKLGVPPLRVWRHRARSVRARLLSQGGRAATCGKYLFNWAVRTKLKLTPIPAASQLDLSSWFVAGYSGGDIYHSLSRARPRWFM

Turning to `O=C(O)c1ccc2c(C3CCCCC3)c3n(c2c1)CC(C(=O)N1CCCC(O)C1)Cc1ccccc1-3` (centres unmarked) [drawing 119], the 50% inhibitory concentration (IC50) in assay [1] fell in the range of 0.1 to 1 µM. In addition, in assay [2], the EC50 fell in the range of 0.1 to 1 µM.
`O=C(O)c1ccc2c(C3CCCCC3)c3n(c2c1)CC(C(=O)N1CCCC(O)C1)Cc1ccccc1-3` (centres unmarked) [drawing 120] returned a half-maximal inhibitory concentration (IC50) in assay [1] of over 1 µM. Also, in assay [2], the EC50 lay within 1 to 10 µM.
Regarding `O=C(O)c1ccc2c(C3CCCCC3)c3n(c2c1)CC(C(=O)N1CCCC(O)C1)Cc1ccccc1-3` (centres unmarked) [drawing 121], in assay [1], the IC50 lay in the range of 0.1 to 1 µM. Moreover, the concentration giving a half-maximal response (EC50) in assay [2] was 0.1 to 1 µM.
For the compound “alpha-interferon and ribavirin [reference compound]”, the “sustained efficacy, share of patients” value in assay [3] (HCV patients, combination therapy) is on record as 40%.
As to pegylated alpha-interferon, the “clinical results as monotherapy” value in assay [3] (compared with unmodified alpha-interferon) is reported as “superior to unmodified alpha-interferon”.
